# In patent US20260079084A1, “COMPOUND, EXTRACELLULAR VESICLE STAINING AGENT, AND FLUORESCENT STAINING METHOD FOR EXTRACELLULAR VESICLES” (National University Corporation Tokai National Higher …, priority 2022, published 2026):
# Columns and labels:
# [1] = test system: lactic acid bacteria (Yakult)-derived extracellular vesicles; test: Staining of lactic acid bacteria (Yakult)-derived extracellular vesicles, gel filtration analysis (Example 14 / Comparative example 3); settings: staining agent 1 μM, room temperature 12 hours
# Description: (§1) The staining agent produced in Example 10 was added to an extracellular vesicle preparation liquid so that the final concentration of the staining agent became 1 μM. Further, 1 μL of the staining agent produced in Comparative example 1 was added to an extracellular vesicle preparation liquid. In Example 10 and Comparative example 1, the staining agent was added to the extracellular vesicle preparation liquid and then allowed to stand at room temperature for 12 hours. After 12 hours elapsed, 10 μL of the reaction product was analyzed by a high-performance liquid chromatography gel filtration system. As the eluent for the column, 10 mM of Tris (pH 6.8), 0.25 mM of EDTA, and 50 mM of NaCl were used. Detection was performed on ExoSP at 560 nm for excitation and 600 nm for fluorescence detection and was performed on the compounds synthesized in Examples 1 to 8 at 480 nm for excitation and 530 nm for fluorescence detection. A column having 3 cm of Gen 2 qEV original/70 nm (by iZQN) and Shodex OHpak SB-807 (by Showa denko) connected to each other was used.
# Next, experiments using various lactic fermenting beverages were performed. As the lactic fermenting beverage, A: Yakult (by Yakult), B: Onakayorokobu lactic acid bacteria (by Kurashimoa), and C: Pirkle (by Nissin Foods) were used. Each 500 mL of the lactic fermenting beverages of A to C listed above was centrifuged at 8000 rpm for 30 minutes, and the supernatant was filtrated by a coffee filter. The liquid obtained after the filtration was filtrated by a filter of 0.45 μm (by Sartorius), and the filtrate was filtrated by a filter of 0.033 μm (by GVS). Since extracellular vesicles remain on the filter of 0.033 μm, the extracellular vesicles were washed with 5 mL of phosphate buffer solution three times. Eventually, extracellular vesicles were collected with 1 mL of phosphate buffer solution. […]
# [2] = test system: milk-derived extracellular vesicles; test: Staining of milk-derived extracellular vesicles with heat treatment, gel filtration analysis (Example 11 / Comparative example 2); settings: untreated vs 80° C. for 5 minutes or 15 minutes
# Description: Experiments were performed in the same procedure as in Example 10 except that, after the staining agent was added to the extracellular vesicle preparation liquid in Example 10, the mixture was immediately analyzed with a column (untreated), the mixture was analyzed after treated at 80° C. for 5 minutes, or the mixture was analyzed after treated at 80° C. for 15 minutes. Note that the compounds used in the experiments of Example 11 are labeled with the GIF numbers in the graphs.
# Experiments were performed in the same procedure as in Comparative example 1 except that, after the staining agent was added to the extracellular vesicle preparation liquid in Comparative example 1, the mixture was immediately analyzed with a column (untreated), the mixture was analyzed after treated at 80° C. for 5 minutes, or the mixture was analyzed after treated at 80° C. for 15 minutes.
# [3] = test system: milk-derived extracellular vesicles; test: Gel filtration comparison with compound of Patent Literature 1 (Example 17 / Comparative example 4); settings: reaction time 3 hours at room temperature
# Text: The present applicant has disclosed GIF-2250 illustrated below in Patent Literature 1. GIF-2250 differs from the compounds of the present application in that the portion indicated by “→” is NH. First, the effect of this difference in structure provided on size separation using gel filtration was observed. Note that the synthesis procedure of GIF-2250 is disclosed in Patent Literature 1. The features disclosed in Patent Literature 1 are incorporated in the present specification by reference in its entirety.
# Experiments were performed in the same procedure as in Example 10 except that GIF-2276 and GIF-2250 (Comparative example 4), which is disclosed in Patent Literature 1, were used and the reaction time was 3 hours at room temperature. FIG. 8 illustrates a graph in which respective experimental results are overlapped.
# [4] = test system: milk-derived extracellular vesicles; test: Staining of milk-derived extracellular vesicles, analysis by high-performance liquid chromatography gel filtration system (Example 10 / Comparative example 1); settings: staining agent 1 μM, room temperature 12 hours
# Description: Commercially available pasteurized milk (by Seki milk or Takanashi) of 1 L was centrifuged at 8000 rpm for 30 minutes, and the supernatant was filtrated by a coffee filter. Subsequently, acetic acid was added thereto to be 1%, and the mixture was further centrifuged at 8000 rpm for 30 minutes. The supernatant thereof was further filtrated by a coffee filter. The liquid obtained after the filtration was filtrated by a filter of 0.45 μm (by Sartorius), and the filtrate was filtrated by a filter of 0.1 μm (by Sartorius). Since extracellular vesicles remain on the filter of 0.1 μm, the extracellular vesicles were washed with 5 mL of phosphate buffer solution three times. Eventually, extracellular vesicles were collected with 1 mL of phosphate buffer solution. Further, 10 μL of the purified extracellular vesicle liquid was diluted with 40 μL of phosphate buffer solution (hereafter, referred to as “extracellular vesicle preparation liquid”)
# Compounds 1 to 9 synthesized in Examples 1 to 9 were diluted with DMSO to produce a staining agent used in Example 10.
# ExoSparkler Exosome Membrane Labeling Kit-Red (ExoSP Model No. EX02, by Dojin) was diluted with a DMSO solution in accordance with the instructions for use to produce a staining agent of Comparative example 1.
# as §1, with “As the eluent for the column, 10 mM of Tris (pH 6.8), 0.25 mM of EDTA, and 50 mM of NaCl were used.” left out, “A column having 3 cm of Gen 2 qEV original/70 nm (by iZQN) and Shodex OHpak SB-807 (by Showa denko) connected to each other was used.” left out
# [5] = test system: extracellular vesicles of pasteurized milk; test: Correlation between gel filtration and plate reader detection of extracellular vesicles (Example 17 (2))
# Description: Patent Literature 1 discloses that the use of GIF-2250 enables quantification of extracellular vesicles by a plate reader. The correlation between detection of extracellular vesicles by a plate reader with the use of GIF-2250 and detection of extracellular vesicles by gel filtration with the use of GIF-2276 synthesized in Example 1 was examined.
# Pasteurized milk (Takanashi) was heated at 60, 70, and 80° C. for 30 minutes and cooled back to room temperature. The extracellular vesicles were then prepared by the procedure described in Example 10, and the pasteurized milk was added thereto so that the final concentration of GIF-2276 synthesized in Example 1 became 1 μM to label the extracellular vesicles. The mixture was analyzed by a high-performance liquid chromatography gel filtration system to find the area of the peak. Extracellular vesicles prepared in the same manner reacted with 3 μM of GIF-2250 to find the fluorescence quantity by using a fluorescent plate reader. Respective values were plotted to find a correlation.
# HEK293 cells [6] = test: Tracking of labeled lactic acid bacteria (Yakult)-derived extracellular vesicles introduced into cells (Example 16); assay type: cell-based
# Description: (§2) The milk-derived extracellular vesicles (exosomes) prepared in the procedure of Example 10 were stained with GIF-2276 at room temperature for 12 hours to label the extracellular vesicles. Unreacted GIF-2276 was removed by Microcon 300K (by Millipore). Lysosomes in HEK293 cells (ThermoFisher) were labeled with LysoBrite Red, and GIF-2276-labeled milk-derived extracellular vesicles were added thereto. After 3 hours, the mixture was observed by a microscope. FIG. 6 illustrates the result. The upper left “2276” in FIG. 6 is a fluorescent photograph of the extracellular vesicles labeled with GIF-2276. The upper right “LysoBright” in FIG. 6 is a fluorescent photograph of the lysosomes labeled with LysoBrite Red. The lower left in FIG. 6 is a photograph obtained by merging the fluorescent photograph of the extracellular vesicles labeled with GIF-2276 and the fluorescent photograph of the lysosomes labeled with LysoBrite Red. The lower right in FIG. 6 is a photograph of HEK293 cells captured in visible light.
# Experiments were performed in the same procedure as in Example 15 except that, instead of milk-derived extracellular vesicles, lactic acid bacteria (Yakult)-derived extracellular vesicles were used. FIG. 7 illustrates the result.
# HEK293 cells [7] = test: Tracking of labeled milk-derived extracellular vesicles introduced into cells (Example 15); assay type: cell-based
# Description: as §2
SMILES,sensitivity order in staining of lactic acid bacteria extracellular vesicles [1],effect of heat treatment on fluorescence intensity [2],sensitivity order in staining of pasteurized milk extracellular vesicles [4],other results
CN(C)c1ccc(CCCN(C)C2CCc3cc(OCCOCCOCCOCCOc4ccc([N+](=O)[O-])c5nonc45)ccc32)cc1 (stereo not shown) [GIF-2282],"highest in the order of GIF-2277, GIF-2281, and GIF-2282",–,–,–
CN(C)c1ccc(CN(C)C2CCc3cc(OCCn4cc(CCOc5ccc([N+](=O)[O-])c6nonc56)nn4)ccc32)cc1 (stereo not shown) [GIF-2274],–,significant increase in the fluorescence intensity due to heat treatment,–,–
CN(C)c1ccc(CCCN(C)C2CCc3cc(OCCOc4ccc([N+](=O)[O-])c5nonc45)ccc32)cc1 (stereo not shown) [GIF-2276],–,significant increase in the fluorescence intensity due to heat treatment,"highest in the order of GIF-2281, GIF-2280, and GIF-2276","peak of milk-derived extracellular vesicles in gel filtration [3]: a clear peak due to the size of milk-derived extracellular vesicles was found; quantification of extracellular vesicles by plate reader ([5]; depiction omitted): successfully quantified; correlation of gel filtration peak area (GIF-2276) with plate reader fluorescence intensity (GIF-2250) ([5]; milk heated at 60, 70, 80° C. for 30 minutes, GIF-2276 1 μM, GIF-2250 3 μM): high correlation; tracking of labeled extracellular vesicles in cells (HEK293 cells [6]): can be tracked in the cells to which the same was introduced; tracking of labeled extracellular vesicles in cells (HEK293 cells [7]; HEK293 cells, after 3 hours): can be tracked in the cells to which the same was introduced; localization of signals of labeled extracellular vesicles in cells (HEK293 cells [7]; lysosomes labeled with LysoBrite Red, microscope after 3 hours): most of signals from extracellular vesicles are localized in the lysosomes"
CN(C)c1ccc(CCCN(C)C2CCc3cc(OCCOCCOc4ccc([N+](=O)[O-])c5nonc45)ccc32)cc1 (stereo not shown) [GIF-2277],"highest in the order of GIF-2277, GIF-2281, and GIF-2282",significant increase in the fluorescence intensity due to heat treatment,–,–
CN(CCCc1ccc(N(C)C)cc1)Cc1ccc(OCCOc2ccc([N+](=O)[O-])c3nonc23)cc1 [GIF-2281],"highest in the order of GIF-2277, GIF-2281, and GIF-2282",–,"highest in the order of GIF-2281, GIF-2280, and GIF-2276",–
"CN(C)c1ccc(CCCN(C)C2CCc3cc(OCCNc4ccc([N+](=O)[O-])c5nonc45)ccc32)cc1 (stereo not shown) [GIF-2250, reference compound]",–,–,–,peak of milk-derived extracellular vesicles in gel filtration [3]: no peak of milk-derived extracellular vesicles was found
CN(C)c1ccc(CCCN(C)C2CCc3cc(OCCCCCCOc4ccc([N+](=O)[O-])c5nonc45)ccc32)cc1 (stereo not shown) [GIF-2280],–,–,"highest in the order of GIF-2281, GIF-2280, and GIF-2276",–
